According to the supplement of paper PMC5412046:
Counter-ions that a name gives are not always drawn.

What follows are molecules tested on SB.msgc-1 (assay: AC50 for growth inhibition (viability) (log10 M); higher = less potent). Settings: SB.msgc-1 (sporadic gastric cancer).
How it was run: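 Compound dissolved in DMSO was transferred by pintool, 23 nL per 1536 well, onto 500 hereditary or sporadic patient-derived gastric cancer cells in 5 μL medium. The series spanned 11 threefold dilutions, the highest at a final 46 μM. At 48 h, a 30 min room-temperature incubation with CellTiter-Glo preceded luminescence measurement on a ViewLux. The log half-maximal activity concentration was fitted by a four-parameter model to DMSO-normalised viability, with only high-quality curve classes accepted.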

Structure (SMILES) | AC50 for growth inhibition (log10 M)
COc1cc(Nc2ncc(F)c(Nc3ccc4c(n3)NC(=O)C(C)(C)O4)n2)cc(OC)c1OC [R406] | -4.63
ClC1=C[NH]N=C1C\2NC(=N\C3=C2C(=O)CCC3)/NC4=NC5=CC=CC=C5O4 (stereo not given) | -4.78
C=CC[C@@H]1/C=C(\C)C[C@H](C)C[C@H](OC)[C@H]2O[C@@](O)(C(=O)C(=O)N3CCCC[C@H]3C(=O)O[C@H](/C(C)=C/[C@@H]3CC[C@@H](O)[C@H](OC)C3)[C@H](C)[C@@H](O)CC1=O)[C@H](C)C[C@@H]2OC [FK-506] | -5.18
Cc1cc(/C=c2/sc3nc4ccccc4n3c2=O)c(C)n1-c1ccccc1 [ITX3] | -4.88
CNC(=O)c1ccc2c(c1)NC(=O)/C2=C(\Nc1cccc(CN(C)C)c1)c1ccccc1 | -4.93
CCc1cccc(CC)c1NC(=O)N1Cc2[nH]nc(NC(=O)c3ccc(N4CCN(C)CC4)cc3)c2C1 | -4.63
O=C1NCCc2[nH]c(-c3ccncc3)cc21 | -5.63
COc1cc(NCc2ccc3nc(N)nc(N)c3c2C)cc(OC)c1OC [Trimetrexate] | -5.83
Cc1ncc(-c2ccnc(Nc3ccc([S+](C)(=O)[O-])cc3)n2)n1C(C)C [AZD-5438] | -5.78
CN1CCN(Cc2ccc(NC(=O)Nc3ccc(Oc4cc(NC(=O)C5CC5)ncn4)cc3)cc2C(F)(F)F)CC1 [WS3] | -5.93
O=c1[nH]c2ccccc2n1C1CCN(Cc2ccc(-c3nc4cc5nc[nH]c5cc4nc3-c3ccccc3)cc2)CC1 [AKT inhibitor VIII] | -4.83
Cc1nc2cnc3ccc(C#Cc4cccnc4)cc3c2n1-c1ccc(C(C)(C)C#N)cc1 [BAG-956] | -5.93
O=C1CCc2ccc(OCCCCN3CCN(c4cccc(Cl)c4Cl)CC3)cc2N1 [Aripiprazole] | -4.73
N\C1=N\C2=C(N=C[N]2COC(CO)CO)C(=O)N1 [Ganciclovir] | -5.28
Nc1nc2ccc(OC(F)(F)F)cc2s1 [Riluzole] | -4.73
Cc1cnc(Nc2cccc(CN3CCOCC3)c2)nc1Nc1cccc([S+](=O)([O-])NC(C)(C)C)c1 [TG-89] | -4.78
CC(N[C@H]1CCCC[C@@H]1NC(=O)c1ccc(Cl)cc1)c1cccc2ccccc12 (stereo not given in full) [Calhex 231] | -5.93
CC(C)(OCc1nn(Cc2ccccc2)c2ccccc12)C(=O)O [Bindarit] | -5.08
C[C@H](Cc1ccc(O)c(O)c1)[C@@H](C)Cc1ccc(O)c(O)c1 [Masoprocol] | -4.83
O=C1NC(=O)/C(=C\c2ccc(-c3ccc(F)cc3)o2)S1 | -4.78
CCCCCCCN(CC)CCCC(O)c1ccc(NS(C)(=O)=O)cc1.CCCCCCCN(CC)CCCC(O)c1ccc(NS(C)(=O)=O)cc1.O=C(O)/C=C/C(=O)O (stereo not given) [Ibutilide fumarate] | -4.68
O=C(O)CCCc1ccc(N(CCCl)CCCl)cc1 [Chlorambucil] | -5.33

Structure (SMILES) | AC50 for growth inhibition (log10 M)
CCCn1c(=O)c2[nH]c(-c3cnn(Cc4cccc(C(F)(F)F)c4)c3)nc2n(CC)c1=O [CVT-6883] | -4.68
CO[C@H]1/C=C/O[C@@]2(C)Oc3c(C)c(O)c4c(c3C2=O)C2=NC3(CCN(CC(C)C)CC3)NC2=C(NC(=O)/C(C)=C\C=C\[C@H](C)[C@H](O)[C@@H](C)[C@@H](O)[C@@H](C)[C@H](OC(C)=O)[C@@H]1C)C4=O [Rifabutin] | -4.63
CC1=CC=C2N=C(NC(=O)CS\C3=N\C4=C(\SCC4)C(=O)N3C5=CC=CC=C5)SC2=C1 [IWP-2] | -5.18
Nc1nc(NCCNc2ncc(-n3ccnc3)c(-c3ccc(Cl)cc3Cl)n2)ccc1[N+](=O)[O-] | -5.68
COc1ccc(C(=O)N2CCCC2=O)cc1 [Aniracetam] | -4.68
COc1cc(Nc2c(C#N)cnc3cc(OCCCN4CCN(C)CC4)c(OC)cc23)c(Cl)cc1Cl [Bosutinib] | -5.58
CCCCc1ccc2[nH]c(NC(=O)OC)nc2c1 [Parbendazole] | -6.83
[O-]C(=O)C1=C(C(=C(Cl)C(=C1Cl)Cl)Cl)C/2=C/3\C=C(I)/C(=O)/C(=C3OC4=C2C=C(I)C(=C4I)[O-])I [Rose Bengal disodium] | -4.93
c1ccc2c(Oc3nc(Nc4ccc(N5CCOCC5)cc4)c4ncn(C5CCCCC5)c4n3)cccc2c1 [purmorphamine] | -4.98
CC[C@]1(O)C[C@H]2CN(CCC3=C([NH]C4=C3C=CC=C4)[C@@](C2)(C(=O)OC)C5=CC6=C(C=C5OC)N(C=O)[C@H]7[C@](O)([C@H](OC(C)=O)[C@]8(CC)\C=C/C[N@@]9CC[C@]67[C@H]89)C(=O)OC)C1 [Vincristine sulfate] | -8.48
C[C@H](CCC(=O)O)[C@H]1CC[C@H]2[C@@H]3[C@@H](O)C[C@@H]4C[C@H](O)CC[C@]4(C)[C@H]3CC[C@]12C [Ursodiol] | -5.43
NC(=O)c1cccc(-c2cc(Nc3ccc(OC(F)(F)F)cc3)ncn2)c1 [GNF 2] | -4.73
OCc1ccc(-c2ccc(-c3ccc(CO)s3)o2)s1 [RITA] | -4.93
O=[N+]([O-])c1ccc(Nc2ccccc2-c2ccccc2)c2nonc12 | -4.53
Cn1ccc2cc3c(cc21)CCN3C(=O)Nc1cccnc1 | -5.03
CC(C)C1=N[N](C\2=C1C(=O)N\C(=N2)CC3=CC=C(OCCO)C=C3)C4=C(Cl)C=CC=C4Cl | -6.88
Clc3cc4CCc1cccnc1C(=C2/CCN(CC2)C(=O)OCC)\c4cc3 [Loratadine] | -4.73
O=C(Nc1cccc(Br)c1)c1cccc([S+](=O)([O-])N2CCCCCC2)c1 [Ak-7] | -4.73
Nc1nc(Nc2ccc([S+](N)(=O)[O-])cc2)nn1C(=O)c1c(F)cccc1F | -5.33
O=C(NCc1ccncc1)C12C[C@H]3C[C@@H](C1)CC(c1ccc(Cl)cc1)(C3)C2 | -4.98
CCCCCCCCCCCCCCCC(=O)O[C@@H]1[C@@H](O)[C@@H](O)[C@@H]([C@H](NC(=O)[C@@H]2C[C@@H](CCC)CN2C)[C@H](C)Cl)O[C@@H]1SC.Cl [Clindamycin palmitate] | -4.78
CO[C@@H](C(=O)N1Cc2[nH]nc(NC(=O)c3ccc(N4CCN(C)CC4)cc3)c2C1)c1ccccc1 [Danusertib] | -5.53

Structure (SMILES) | AC50 for growth inhibition (log10 M)
Clc1ccc(CCC(Cn2ccnc2)Sc2c(Cl)cccc2Cl)cc1 (stereo not given) [Butoconazole nitrate] | -4.68
Cl.Cl.Fc1ccc(C(OCCN2CCN(CCCc3ccccc3)CC2)c2ccc(F)cc2)cc1 [Vanoxeamine] | -4.73
O=C(Nc1nc2cccc(-c3ccc(CN4CC[S+](=O)([O-])CC4)cc3)n2n1)C1CC1 [GPLG-0634] | -4.73
N#CC(c1ccnc(NCCc2cccnc2)n1)c1nc2ccccc2s1 (stereo not given) [JNK Inhibitor V] | -4.73
C[C@@H]1O[C@@H](O[C@H]\2CC[C@]\3(C)[C@@H]4CC[C@]5(C)[C@@H](CC[C@@]5(O)[C@H]4CCC3=C2)C/6=C/OC(=O)/C=C6)[C@H](O)[C@H](O)[C@@H]1O [Proscillaridin] | -7.68
O=C1Nc2ccc(I)cc2/C1=C/c1cc(Br)c(O)c(Br)c1 [GW-5074] | -4.93
N=C(N)NC(=N)NCCc1ccccc1 [Phenformin hydrochloride] | -5.88
CC1(COc2ccc3c(c2)ncn3-c2ccc3cccc(N4CCC(N)CC4)c3n2)COC1 [Crenolanib] | -7.38
C=CCn1c(=O)c2cnc(Nc3ccc(N4CCN(C)CC4)cc3)nc2n1-c1cccc(C(C)(C)O)n1 [MK-1775] | -6.43
O=C1Nc2ccccc2/C1=C1\Nc2ccccc2C1=O [Indirubin] | -5.18
CN(C)CCOc1ccc(-c2nc(-c3ccncc3)c(-c3ccc4c(c3)CC/C4=N\O)[nH]2)cc1 | -4.68
C/C=C(/C(=C/C)c1ccc(O)cc1)c1ccc(O)cc1 [Dienestrol] | -5.08
C[C@H]1CC2C3CCC/4=C/C(=O)/C=C\[C@]4(C)[C@@]3(F)[C@@H](O)C[C@]2(C)[C@@]1(O)C(=O)CO (stereo not given in full) [Betamethasone] | -4.88
N=C(N)c1ccc(OCCCCCOc2ccc(C(=N)N)cc2)cc1 [Pentamidine isethionate] | -4.83
CC(=O)O[C@@]1(CC[C@H]2[C@@H]3\C=C(C)/C4=C/C(=O)CC[C@]4(C)[C@H]3CC[C@]12C)C(C)=O [Megestrol acetate] | -5.23
Cn1cc(-c2ccncc2)c(-c2ccc(OCc3ccc4ccccc4n3)cc2)n1 [MP-10] | -5.13
CC[S+](=O)([O-])c1cccc(-c2cc(C(=O)NC3CCN(C)CC3)c(C)c3[nH]c4ncc(C)cc4c23)c1 [TAK-901] | -5.33
O=C(Nc1ccc(OC(F)(F)F)cc1)c1sccc1NCc1ccnc2ccccc12 [OSI-930] | -4.73
COC(=O)Nc1nc2ccc([S+]([O-])c3ccccc3)cc2[nH]1 (stereo not given) [Oxfendazole] | -4.63
O=C1NC(=O)/C(=C/c2cccc(C(F)(F)F)c2)S1 [SMI-4a] | -4.83
OC(=O)C1=CC=C(NC2=NC3=C(C\N=C(/C4=CC(=CC=C34)Cl)C5=C(F)C=CC=C5F)C=N2)C=C1 [MLN-8054] | -4.78
